ChEMBL document CHEMBL5120890, “Untapped Pharmaceutical Potential of 4,5,4'-Trihydroxy-3,3'-dimethoxybibenzyl for Regulating Obesity: A Cell-Based Study with a Focus on Terminal Differentiation in Adipogenesis” (J Nat Prod, 2022)
Active and inactive are the calls of the source. The calls are words filed in the database; no cut-off is given here.

Legend:
3T3-L1 [1] = assay: Down regulation of CDK4 protein expression in mouse 3T3-L1 cells at 0.5 to 5 uM after 18 hrs by western blot analysis; type: functional, cell-based; details: dose 0.5-5 µM
3T3-L1 [2] = assay: Antiproliferative activity against mouse 3T3-L1 cells assessed as reduction in cell proliferation at 0.5 to 5 uM after 24 to 72 hrs by crystal violet staining based assay; type: functional; details: dose 0.5-5 µM, time 24-72 hrs
[3] = Cytotoxicity against human PCS-210-010 pre-adipocytes assessed as reduction in cell viability at >=25 uM after 48 hrs by MTT assay; type: toxicity, cell-based; details: pcs-210-010, 48 h
PCS-210-010 [4] = assay: Induction of apoptosis in human PCS-210-010 adipocytes at 0.5 to 5 uM after 48 hrs by PI/Hoechst 33342 staining based fluorescence microscopic analysis; type: functional, cell-based; details: dose 0.5-5 µM
3T3-L1 [5] = assay: Down regulation of C/EBpalpha protein expression in mouse 3T3-L1 cells at 0.5 to 5 uM after 48 hrs by western blot analysis; type: functional, cell-based; details: dose 0.5-5 µM, DDE = dose-dependent effect
3T3-L1 [6] = assay: Down regulation of FABP4 mRNA expression in mouse 3T3-L1 cells in maturation at 0.5 to 5 uM after 10 days by RT-qPCR analysis; type: functional, cell-based; details: dose 0.5-5 µM, time 10.0 day
3T3-L1 [7] = assay: Down regulation of adiponectin protein expression in mouse 3T3-L1 cells in maturation at 0.5 to 5 uM after 10 days by western blot analysis; type: functional, cell-based; details: dose 0.5-5 µM, time 10.0 day
3T3-L1 [8] = assay: Inhibition of preadipocyte differentiation in mouse 3T3-L1 cells assessed as reduction in lipid droplet accumulation in early differentiation at 0.5 to 5 uM incubated for 8 days by Oil Red O staining based inverted optical microscopic analysis; type: functional, cell-based; details: dose 0.5-5 µM, time 8.0 day
3T3-L1 [9] = assay: (§1) Cytotoxicity against mouse 3T3-L1 adipocytes assessed as reduction in cell viability after 48 hrs by MTT assay; type: toxicity, cell-based; details: 3t3-l1, 48 h, time 48 hrs
[10] = as §1; type: toxicity, cell-based; details: 3T3-L1 adipocytes
3T3-L1 [11] = assay: Down regulation of adiponectin mRNA expression in mouse 3T3-L1 cells in early differentiation at 0.5 to 5 uM after 8 days by RT-qPCR analysis; type: functional, cell-based; details: dose 0.5-5 µM, time 8.0 day
3T3-L1 [12] = assay: Upregulation of p27 protein expression in mouse 3T3-L1 cells at 0.5 to 5 uM after 18 hrs by western blot analysis; type: functional, cell-based; details: dose 0.5-5 µM
3T3-L1 [13] = assay: Down regulation of SREBP1 protein expression in mouse 3T3-L1 cells at 0.5 to 5 uM after 48 hrs by western blot analysis; type: functional, cell-based; details: dose 0.5-5 µM, DDE = dose-dependent effect
PCS-210-010 [14] = assay: Inhibition of preadipocyte differentiation in human PCS-210-010 cells assessed as reduction in lipid droplet accumulation in maturation at 0.5 to 5 uM incubated for 8 days by Oil Red O staining based inverted optical microscopic analysis; type: functional, cell-based; details: dose 0.5-5 µM, time 8.0 day
3T3-L1 [15] = assay: Down regulation of PL1N1 mRNA expression in mouse 3T3-L1 cells in early differentiation at 0.5 to 5 uM after 8 days by RT-qPCR analysis; type: functional, cell-based; details: dose 0.5-5 µM, time 8.0 day
3T3-L1 [16] = assay: Down regulation of FAS protein expression in mouse 3T3-L1 cells in maturation at 0.5 to 5 uM after 10 days by western blot analysis; type: functional, cell-based; details: dose 0.5-5 µM, time 10.0 day
3T3-L1 [17] = assay: Down regulation of LPL mRNA expression in mouse 3T3-L1 cells in maturation at 0.5 to 5 uM after 10 days by RT-qPCR analysis; type: functional, cell-based; details: dose 0.5-5 µM, time 10.0 day
3T3-L1 [18] = assay: Inhibition of preadipocyte differentiation in mouse 3T3-L1 cells assessed as reduction in triglyceride accumulation in maturation at 0.5 to 5 uM incubated for 8 days by colorimetric assay; type: functional, cell-based; details: dose 0.5-5 µM, time 8.0 day, DDE = dose-dependent effect
3T3-L1 [19] = assay: Down regulation of SREBP1 mRNA expression in mouse 3T3-L1 cells at 0.5 to 5 uM after 48 hrs by RT-qPCR analysis; type: functional, cell-based; details: dose 0.5-5 µM, DDE = dose-dependent effect
3T3-L1 [20] = assay: Down regulation of CDK6 protein expression in mouse 3T3-L1 cells at 0.5 to 5 uM after 18 hrs by western blot analysis; type: functional, cell-based; details: dose 0.5-5 µM
3T3-L1 [21] = assay: Down regulation of PLIN1 protein expression in mouse 3T3-L1 cells in early differentiation at 0.5 to 5 uM after 8 days by western blot analysis; type: functional, cell-based; details: dose 0.5-5 µM, time 8.0 day
3T3-L1 [22] = assay: Inhibition of preadipocyte differentiation in mouse 3T3-L1 cells assessed as reduction in lipid droplet accumulation in maturation at 0.5 to 5 uM incubated for 8 days by Oil Red O staining based inverted optical microscopic analysis; type: functional, cell-based; details: dose 0.5-5 µM, time 8.0 day
[23] = molecular target: T1, 5'-AMP-activated protein kinase (Mus musculus) (UniProt Q5EG47+Q8BRK8+Q6PAM0+O54950+Q91WG5+Q9R078+Q8BGM7); assay: Activation of AMPK in mouse 3T3-L1 cells assessed as increase in AMPKbeta phosphorylation in maturation at 0.5 to 5 uM after 48 hrs by Western blot analysis; type: cell-based; details: filed as activator, dose 0.5-5 µM
3T3-L1 [24] = assay: Down regulation of LPL protein expression in mouse 3T3-L1 cells in early differentiation at 0.5 to 5 uM after 8 days by western blot analysis; type: functional, cell-based; details: dose 0.5-5 µM, time 8.0 day
[25] = molecular target: RAC-alpha serine/threonine-protein kinase (Mus musculus) (UniProt P31750); assay: Inhibition of AKT in mouse 3T3-L1 cells assessed as reduction in AKT phosphorylation in maturation at 0.5 to 5 uM after 48 hrs by Western blot analysis; type: cell-based; details: dose 0.5-5 µM
3T3-L1 [26] = assay: Down regulation of FABP4 mRNA expression in mouse 3T3-L1 cells in early differentiation at 0.5 to 5 uM after 8 days by RT-qPCR analysis; type: functional, cell-based; details: dose 0.5-5 µM, time 8.0 day
3T3-L1 [27] = assay: Down regulation of FAS mRNA expression in mouse 3T3-L1 cells in maturation at 0.5 to 5 uM after 10 days by RT-qPCR analysis; type: functional, cell-based; details: dose 0.5-5 µM, time 10.0 day
[28] = molecular target: T1, 5'-AMP-activated protein kinase (Mus musculus); assay: Activation of AMPK in mouse 3T3-L1 cells assessed as increase in AMPKalpha phosphorylation in early differentiation at 0.5 to 5 uM after 48 hrs by Western blot analysis; type: cell-based; details: filed as activator, dose 0.5-5 µM
[29] = molecular target: T1, 5'-AMP-activated protein kinase (Mus musculus); assay: Activation of AMPK in mouse 3T3-L1 cells assessed as increase in AMPKalpha phosphorylation in maturation at 0.5 to 5 uM after 48 hrs by Western blot analysis; type: cell-based; details: filed as activator, dose 0.5-5 µM
3T3-L1 [30] = assay: Down regulation of FABP4 protein expression in mouse 3T3-L1 cells in maturation at 0.5 to 5 uM after 10 days by western blot analysis; type: functional, cell-based; details: dose 0.5-5 µM, time 10.0 day
[31] = Cytotoxicity against human PCS-210-010 adipocytes assessed as reduction in cell viability after 48 hrs by MTT assay; type: toxicity, cell-based
PCS-210-010 [32] = assay: Inhibition of preadipocyte differentiation in human PCS-210-010 cells assessed as increase in glycerol release in maturation at 0.5 to 5 uM incubated for 8 days by colorimetric assay; type: functional, cell-based; details: dose 0.5-5 µM, time 8.0 day, DDE = dose-dependent effect
[33] = Cytotoxicity against human PCS-210-010 pre-adipocytes assessed as reduction in cell viability after 48 hrs by MTT assay; type: toxicity, cell-based
3T3-L1 [34] = assay: Effect on Cyclin D3 protein expression in mouse 3T3-L1 cells at 0.5 to 5 uM after 18 hrs by western blot analysis; type: functional, cell-based; details: dose 0.5-5 µM

RAC-alpha serine/threonine-protein kinase (Mus musculus), sequence (P31750 whole entry): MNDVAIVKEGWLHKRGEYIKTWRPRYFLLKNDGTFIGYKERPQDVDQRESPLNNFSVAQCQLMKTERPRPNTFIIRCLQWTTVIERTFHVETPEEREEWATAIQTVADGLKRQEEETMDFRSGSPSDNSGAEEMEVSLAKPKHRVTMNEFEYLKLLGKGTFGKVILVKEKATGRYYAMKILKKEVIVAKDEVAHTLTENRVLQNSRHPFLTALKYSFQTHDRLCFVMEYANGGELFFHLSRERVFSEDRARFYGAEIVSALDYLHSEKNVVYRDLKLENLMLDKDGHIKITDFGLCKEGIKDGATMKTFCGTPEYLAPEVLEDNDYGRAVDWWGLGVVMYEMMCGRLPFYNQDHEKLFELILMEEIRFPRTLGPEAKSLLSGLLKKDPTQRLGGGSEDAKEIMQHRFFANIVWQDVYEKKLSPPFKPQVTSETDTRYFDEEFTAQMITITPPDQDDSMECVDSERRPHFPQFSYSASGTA

In the case of `COc1cc(CCc2cc(O)c(O)c(OC)c2)ccc1O`, the Activity (3T3-L1 [1]) is reported as “Active”, the Activity (3T3-L1 [2]) is reported as “Active” and the Activity [3] is reported as “Toxic”. For the same compound, the Activity (PCS-210-010 [4]) was “Non-Toxic”, the Activity (3T3-L1 [5]) was “Dde” and the Activity (3T3-L1 [6]) was “Active”. The Activity (3T3-L1 [7]) was “Active”, the inhibition (3T3-L1 [8]) was “Active” and the Activity (3T3-L1 [9]) was “Toxic”. For the same compound, the IC50 at 48 h [10] was 72.4 µM, the Activity (3T3-L1 [11]) was “Active” and the Activity (3T3-L1 [12]) was “Active”. The Activity (3T3-L1 [13]) was “Dde”, the inhibition (PCS-210-010 [14]) was “Active” and the Activity (3T3-L1 [15]) was “Active”. For the same compound, the Activity (3T3-L1 [16]) was “Active”, the Activity (3T3-L1 [17]) was “Active” and the inhibition (3T3-L1 [18]) was “Dde”. For the same compound, the Activity (3T3-L1 [19]) was “Dde”, the Activity (3T3-L1 [20]) was “Active” and the Activity (3T3-L1 [21]) was “Active”. For the same compound, the inhibition (3T3-L1 [22]) was “Active”, the Activity [23] was “Active” and the Activity (3T3-L1 [24]) was “Active”. For the same compound, the inhibition [25] was “Active”, the Activity (3T3-L1 [26]) was “Active” and the Activity (3T3-L1 [27]) was “Active”. The Activity [28] was “Active”, the Activity [29] was “Active” and the Activity (3T3-L1 [30]) was “Active”. The IC50 at 48 h ([31]; PCS-210-010 adipocytes) was 71.9 µM, the Activity ([31]; pcs-210-010, 48 h, time 48 hrs) was “Toxic” and the inhibition (PCS-210-010 [32]) was “Dde”. For the same compound, the IC50 at 48 h ([33]; PCS-210-010 pre-adipocytes) was 34.6 µM, the Activity ([33]; pcs-210-010, 48 h, time 48 hrs) was “Toxic” and the Activity (3T3-L1 [34]) was “Active”.
